Data as given in patent publication US8993000B2, “Method for inducing differentiation of dental pulp cells into odontoblasts” (National University Corporation Okayama University, priority 2009, dated 2015).

B1: Norrin: protein capable of directly activating a Wnt signaling pathway (R&D Systems, catalog No. 3014-NR) (protein, UniProt Q00604 25-133, looked up)
Norrin: KTDSSFIMDSDPRRCMRHHYVDSISHPLYKCSSKMVLLARCEGHCSQASRSEPLVSFSTVLKQPFRSSCHCCRPQTSKLKALRLRCSGGMRLTATYRYILSCHCEECNS
B2: R-Spondin2: protein capable of directly activating a Wnt signaling pathway (R&D Systems, catalog No. 3266-RS/CF) (protein, UniProt Q6UXX9 22-243, looked up)
R-spondin-2: QGNRWRRSKRASYVSNPICKGCLSCSKDNGCSRCQQKLFFFLRREGMRQYGECLHSCPSGYYGHRAPDMNRCARCRIENCDSCFSKDFCTKCKVGFYLHRGRCFDECPDGFAPLEETMECVEGCEVGHWSEWGTCSRNNRTCGFKWGLETRTRQIVKKPVKDTILCPTIAESRRCKMTMRHCPGGKRTPKAKEKRNKKKKRKLIERAQEQHSVFLATDRANQ

System: MEDP cells as a pulp-derived cell line
Assay: Dspp expression by PCR in cultured MEDP pulp-derived cells (induction of differentiation into odontoblasts)
Assay type: cell-based
Settings: for expression of Dspp (relative ratio of DSPP to GADPH amplification product): fibronectin-coated vessel; for expression of Dspp in a pulp-derived cell line: same technique as Example 1, addition concentration to be considered
Procedure: In this example, MEDP cells as a pulp-derived cell line were cultured in a system including NaClO3, and the expression of Dspp in the cultured cells was confirmed. The expression of Dspp was confirmed by PCR.
The MEDP cells were cultured using a DMEM medium containing 10% v/v fetal bovine serum (FBS). The cells were suspended in the medium so that the number of the cells was 3.7×10^5 cells/ml, and 5 ml of the cell suspension were added to a culture vessel having a diameter of 6 cm and cultured. The culture was carried out using a culture vessel coated with fibronectin (FN) at 37±0.5° C. On day 1 of the culture, […] was added so that the final concentration was 50 mM or 100 mM, and the cells were cultured for an additional 7 days.
After mRNA had been extracted from the cultured cells using an RNeasy Mini Kit™ (manufactured by QIAGEN), reverse transcription was carried out using a PrimeScript™ Reverse Transcriptase (manufactured by TAKARA) to prepare cDNA, which was used as a sample for PCR. The extraction of mRNA and the preparation of cDNA were carried out in accordance with the manufacturer's instructions. Primers formed of base sequences set forth in SEQ ID NOS: 1 and 2 of the sequence listing were used as primers for amplification of DSPP, and primers formed of base sequences set forth in SEQ ID NOS: 3 and 4 of the sequence listing were used as primers for amplification of GADPH as a control gene. The PCR was carried out using a LightCycler™ (manufactured by Roche). The expression amount of DSPP was confirmed with a relative ratio between an amplification product of DSPP and an amplification product of GADPH.
A treatment for inducing differentiation was carried out by the same technique as that of Example 1 except that LiCl was used in place of NaClO3 and LiCl was added so that the final concentration was 5 mM or 50 mM on day 1 of the culture. Then, the expression of Dspp was confirmed.
A treatment for inducing differentiation was carried out by the same technique as that of Example 1 except that NaClO4 was used in place of NaClO3. Then, the expression of Dspp was confirmed.
A treatment for inducing differentiation is carried out by the same technique as that of Example 1 except that Norrin (R&D Systems, Inc.: catalog No.: 3014-NR) is used in place of NaClO3. Then, the expression of Dspp is confirmed. The addition concentration of Norrin is to be considered.
A treatment for inducing differentiation is carried out by the same technique as that of Example 1 except that R-Spondin2 (R&D Systems, Inc.: catalog No.: 3266-RS/CF) is used in place of NaClO3. Then, the expression of Dspp is confirmed. The addition concentration of R-Spondin2 is to be considered.

[1] = 50 mM or 100 mM added on day 1, cultured additional 7 days

| Molecule | expression of Dspp (relative ratio of DSPP to GADPH amplification product) [1] | expression of Dspp in a pulp-derived cell line | further results |
| --- | --- | --- | --- |
| [Cl-].[Li+] [LiCl, lithium chloride] |  |  | expression of Dspp (relative ratio of DSPP to GADPH amplification product) (5 mM or 50 mM added on day 1, cultured additional 7 days): significantly enhanced |
| [Na+].[O-][Cl+2]([O-])[O-] [NaClO3, sodium chlorate] | significantly enhanced |  |  |
| [O-][Cl+3]([O-])([O-])O [sodium perchlorate] | significantly enhanced |  |  |
| B1 |  | significantly enhances |  |
| B2 |  | significantly enhances |  |
